This note sets out measurements from ChEMBL document CHEMBL5625221, “Discovery of indolinone-bearing benzenesulfonamides as new dual carbonic anhydrase and VEGFR-2 inhibitors possessing anticancer and pro-apoptotic properties” (Eur J Med Chem, 2023).

The test system of test [1] is MCF7. Kind of test: cells. The conditions noted are these: Homo sapiens, MCF7, 48 h.
Description: Antiproliferative activity against human MCF7 cells assessed as inhibition of cell growth incubated for 48 hrs by WST-1 reagent based ELISA
The target of test [2] is Carbonic anhydrase 9 (Homo sapiens, UniProt Q16790). Kind of test: Inhibition of human carbonic anhydrase 9 assessed as inhibition constant preincubated for 15 mins by phenol red dye based stopped flow CO2 hydration assay.
The test system of test [3] is HCT-116. Kind of test: cells. The conditions noted are these: Homo sapiens, HCT-116, 48 h.
Description: Antiproliferative activity against human HCT-116 cells assessed as inhibition of cell growth incubated for 48 hrs by WST-1 reagent based ELISA
Test [4] concerns MCF7. Description: cells. The conditions noted are these: Homo sapiens, MCF7, 48 h. This is another data set of the same source.
Description: Antiproliferative activity against human MCF7 cells assessed as inhibition of cell growth incubated for 48 hrs by MTT reagent based ELISA
Test [5] concerns the target Vascular endothelial growth factor receptor 2 (Homo sapiens, UniProt P35968). Description: Inhibition of VEGFR-2 (unknown origin) using biotinylated poly(Glu-Tyr) at 4:1 ratio as substrate in presence of ATP incubated for 5 mins by ELISA. (ELISA stands for enzyme-linked immunosorbent assay.)
The subject of test [6] is MDA-MB-231. Kind of test: cells. Conditions: Homo sapiens, MDA-MB-231, 48 h.
Description: Antiproliferative activity against human MDA-MB-231 cells assessed as inhibition of cell growth incubated for 48 hrs by MTT reagent based ELISA
Test [7] has as its system MDA-MB-231. Kind of test: Induction of apoptosis in human MDA-MB-231 cells assessed as decrease in BCL-2 protein level incubated for 24 hrs by ELISA relative to control. Type of test: functional. Set-up: scale not given: the % may be the effect or the level left.
Test [8] deals with MDA-MB-231. Kind of test: Induction of apoptosis in human MDA-MB-231 cells assessed as Bax protein level incubated for 24 hrs by ELISA. The test is classed as functional.
Test [9] relates to MDA-MB-231. Kind of test: Induction of apoptosis in human MDA-MB-231 cells assessed as active caspase-3 protein level incubated for 24 hrs by ELISA. The test is classed as functional.
The subject of test [10] is MDA-MB-231. Description: Induction of apoptosis in human MDA-MB-231 cells assessed as BCL-2 protein level incubated for 24 hrs by ELISA. The test is classed as functional.
Test [11] concerns Caco-2. Kind of test: cells. The conditions noted are these: Homo sapiens, Caco-2, 24 h.
Description: Antiproliferative activity against human Caco-2 cells assessed as inhibition of cell growth incubated for 24 hrs by MTS assay

pIC50, pKi: −log10 of the molar value.

Vascular endothelial growth factor receptor 2, sequence (P35968 whole entry): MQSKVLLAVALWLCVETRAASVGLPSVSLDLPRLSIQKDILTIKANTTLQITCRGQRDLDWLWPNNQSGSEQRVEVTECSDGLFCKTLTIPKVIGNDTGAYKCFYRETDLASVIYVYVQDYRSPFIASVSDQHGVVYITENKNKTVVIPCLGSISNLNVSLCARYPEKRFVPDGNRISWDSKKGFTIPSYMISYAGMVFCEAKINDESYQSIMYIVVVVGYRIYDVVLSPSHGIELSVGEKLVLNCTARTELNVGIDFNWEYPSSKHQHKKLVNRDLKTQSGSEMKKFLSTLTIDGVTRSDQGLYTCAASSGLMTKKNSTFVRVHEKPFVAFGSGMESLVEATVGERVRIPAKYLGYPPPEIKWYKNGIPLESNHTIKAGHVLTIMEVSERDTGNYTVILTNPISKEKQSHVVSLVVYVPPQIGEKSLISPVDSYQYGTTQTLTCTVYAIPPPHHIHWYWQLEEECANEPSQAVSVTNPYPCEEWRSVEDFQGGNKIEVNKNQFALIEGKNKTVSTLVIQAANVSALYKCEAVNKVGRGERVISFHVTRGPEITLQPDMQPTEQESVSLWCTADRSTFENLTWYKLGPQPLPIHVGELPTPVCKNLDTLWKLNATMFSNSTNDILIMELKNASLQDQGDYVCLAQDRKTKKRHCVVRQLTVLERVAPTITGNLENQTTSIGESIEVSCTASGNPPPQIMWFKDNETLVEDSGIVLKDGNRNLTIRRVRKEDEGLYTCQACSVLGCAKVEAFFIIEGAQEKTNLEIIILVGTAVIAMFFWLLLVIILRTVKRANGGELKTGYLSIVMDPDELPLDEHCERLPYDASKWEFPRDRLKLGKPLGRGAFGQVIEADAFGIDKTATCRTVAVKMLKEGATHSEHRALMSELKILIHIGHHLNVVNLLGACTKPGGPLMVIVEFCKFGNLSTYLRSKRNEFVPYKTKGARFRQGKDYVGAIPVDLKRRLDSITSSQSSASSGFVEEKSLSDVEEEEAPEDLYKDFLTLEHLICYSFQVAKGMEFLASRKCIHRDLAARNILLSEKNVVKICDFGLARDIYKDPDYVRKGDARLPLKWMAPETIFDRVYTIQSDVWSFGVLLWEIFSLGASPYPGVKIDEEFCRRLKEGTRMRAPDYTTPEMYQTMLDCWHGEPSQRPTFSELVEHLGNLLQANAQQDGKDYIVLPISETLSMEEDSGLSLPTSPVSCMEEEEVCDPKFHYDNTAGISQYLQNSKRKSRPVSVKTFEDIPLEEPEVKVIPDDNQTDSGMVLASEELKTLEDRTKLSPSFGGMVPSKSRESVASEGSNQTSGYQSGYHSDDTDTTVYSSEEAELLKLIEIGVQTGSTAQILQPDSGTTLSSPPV

What is called pIC50 is the IC50 on a negative log10 scale, so that one unit is a factor of ten. For orientation: pKi means the Ki on a negative log10 scale, so that one unit is a factor of ten. Regarding `NS(=O)(=O)c1ccc(CC/N=C2\C(=O)Nc3ccc(Cl)cc32)cc1`, the pIC50 is 4.62 in [1] and 5.44 in test [3]. The pKi in test [2] was 7.54.

Take `CC(C(=O)Nc1ccc(S(N)(=O)=O)cc1)N1CCCC(C(=O)N/N=C2\C(=O)Nc3cc([N+](=O)[O-])ccc32)C1` (centres undefined): the negative-log Ki (pKi) in [2] is 7.53.

With `COc1ccc2c(c1)NC(=O)C2=NNC(=O)C1CCCN(C(C)C(=O)Nc2ccc(S(N)(=O)=O)cc2)C1` (centres undefined), the values for the pIC50 in [4], in test [5] and in test [6] were 4.95, 6.45 and 5.14, respectively. Further, in test [2], the negative logarithm of the Ki (pKi) was 8.38.

For the molecule `NS(=O)(=O)c1ccc(NC(=O)CN2CCC(C(=O)NN=C3C(=O)Nc4ccc(Cl)cc43)CC2)cc1`, the pKi in test [2] was 7.84.

On to `CC(C(=O)Nc1ccc(S(N)(=O)=O)cc1)N1CCCC(C(=O)N/N=C2\C(=O)Nc3cc(Br)ccc32)C1` (centres undefined), for which the pKi in [2] was 8.01.

Regarding `CC(C(=O)Nc1ccc(S(N)(=O)=O)cc1)N1CCCC(C(=O)N/N=C2\C(=O)Nc3ccccc32)C1` (centres undefined), the Activity in test [7] turned out to be 76%; in [8], 265 pg/mL; in test [9], 509 pg/mL; in test [10] it was 3.31 ng/mL. Further, the pIC50 in [4] was 5.00; in test [5], 6.69; in test [6] it was 5.39. Also, the pKi in [2] is 8.44.

On to `COc1ccc2c(c1)NC(=O)C2=NNC(=O)C1CCCN(CC(=O)Nc2ccc(S(N)(=O)=O)cc2)C1` (centres undefined), for which the negative-log Ki (pKi) in test [2] is 7.72.

For the molecule `NS(=O)(=O)c1ccc(NC(=O)CN2CCCC(C(=O)N/N=C3\C(=O)Nc4cc(Br)ccc43)C2)cc1` (centres undefined), the pKi in [2] was 7.18.

Take `NS(=O)(=O)c1ccc(NC(=O)CN2CCCC(C(=O)N/N=C3\C(=O)Nc4ccccc43)C2)cc1` (centres undefined): the pKi in test [2] is 7.28.

Turning to `Cc1ccc2c(c1)NC(=O)/C2=N\NC(=O)C1CCCN(CC(=O)Nc2ccc(S(N)(=O)=O)cc2)C1` (centres undefined), the pKi in [2] is 7.80.

Regarding `CN1C(=O)/C(=N\NC(=O)C2CCCN(CC(=O)Nc3ccc(S(N)(=O)=O)cc3)C2)c2ccccc21` (centres undefined), the negative-log Ki (pKi) in test [2] is 7.47.

`CC(C(=O)Nc1ccc(S(N)(=O)=O)cc1)N1CCCC(C(=O)N/N=C2\C(=O)Nc3cc(F)ccc32)C1` (centres undefined): in test [2], the pKi is 8.29.

As for `CC(C(=O)Nc1ccc(S(N)(=O)=O)cc1)N1CCCC(C(=O)N/N=C2\C(=O)N(Cc3ccc(F)cc3)c3ccccc32)C1` (centres undefined), the pKi in [2] is 8.01.

For the molecule `NS(=O)(=O)c1ccc(NC(=O)CN2CCC(C(=O)N/N=C3\C(=O)N(Cc4ccccc4)c4ccccc43)CC2)cc1`, the pKi in [2] is 7.89.

On to `NS(=O)(=O)c1ccc(NC(=O)CN2CCC(C(=O)NN=C3C(=O)Nc4ccccc43)CC2)cc1`, for which the negative logarithm of the Ki (pKi) in [2] is 7.61.

Turning to `NS(=O)(=O)c1ccc(NC(=O)CN2CCC(C(=O)N/N=C3\C(=O)Nc4ccc(F)cc43)CC2)cc1`, the negative-log IC50 (pIC50) in [4] was 4.53; in test [5] it was 6.09; in test [6], 4.72. In test [2], the pKi is 8.21.

In the case of `NS(=O)(=O)c1ccc(NC(=O)CN2CCCC(C(=O)N/N=C3\C(=O)Nc4cc(Cl)ccc43)C2)cc1` (centres undefined), in test [2], the pKi is 7.66.

Regarding `NS(=O)(=O)c1ccc(NC(=O)CN2CCCC(C(=O)NN=C3C(=O)Nc4cc(F)ccc43)C2)cc1` (centres undefined), the pKi in [2] was 7.45.

Turning to `O=C(CN1C(=O)S/C(=C2/C(=O)Nc3ccccc32)C1=O)Nc1ccccc1`, the pIC50 in [11] was 5.03.

`NS(=O)(=O)c1ccc(NC(=O)CN2CCC(C(=O)NN=C3C(=O)Nc4ccc(Br)cc43)CC2)cc1`: the negative logarithm of the Ki (pKi) in [2] was 7.55.

On to `NS(=O)(=O)c1ccc(NC(=O)CN2CCCC(C(=O)N/N=C3\C(=O)N(Cc4ccccc4)c4ccccc43)C2)cc1` (centres undefined), for which the pKi in test [2] is 7.67.

For the molecule `CC(C(=O)Nc1ccc(S(N)(=O)=O)cc1)N1CCCC(C(=O)N/N=C2\C(=O)N(Cc3ccc(Cl)cc3)c3ccccc32)C1` (centres undefined), the pKi in test [2] was 7.72.

As to `O=c1[nH]cc(F)c(=O)[nH]1` [FLUOROURACIL], the pIC50 in [4] was 5.29; in test [6], 5.06.
